Marks after values point to notes of the source that are not given here.
Legend:
MIA-PaCa-2 = assay: Human pancreatic cancer MIA-PaCa-2 subcutaneous model (34 days of treatment); conditions: for Tumor regression: treatment groups
colon cancer, CS146, 2# = assay: Patients primary tumor tissue subcutaneous model (Day 30 after treatment); type: in vivo, nude mice; conditions: 5-Fu 50 mg/kg i.p. QW × 6w alone
Description: (§1) Fresh primary tumor tissues from patients were implanted in NOD/SCID mice's flank, which developed into a primary tumor, which was then transferred to the nude mice's flank to allow the tumor reaching an exponential growth phase, and the tumor was named 1# tumor, and so on. When the tumor volume and number reached passage requirements, they were implanted into the right flank of nude mice. When the tumors' average volumes reached 100-200 mm^3, the mice were grouped.
(§2) The bodyweight and major/minor axis of mice were measured twice a week, and Tumor Growth Inhibition (TGI) and tumor volume were calculated same as in 5.1.5. In addition, to evaluate the synergetic effect of drug combination in tumor growth, Jin Zhengjun Q value judgment method was used with the follow formula: Q=Ea+b/(Ea+Eb−Ea×Eb). Ea+b is the inhibition ratio of drug combination, Ea and Eb are the inhibition ratio of each of drug treatment when it is administered alone. […] The animals were monitored, and when the experiments were concluded, mice were sacrificed and tumors were extracted and weighted. All the animal experiments confer to the regulations of animal's welfare and the management of experimental animal usage.
Tumor volumes were represented with average±standard error. Data analysis was done using Spss16.0, One-Way ANOVA, LSD (homogeneity of variance) or Dunnett T3 (non-homogeneity of variance). […]

Colo205 = assay: Human colon cancer Colo205 subcutaneous model (Day 28 after treatment); type: in vivo, nude mice
Method: (§3) Tumor cells (i.e., MIA-PaCa-2, WiDr, H2122, colo205) were inoculated in nude mice's flank at 5×10^6 cells per mouse. The mice were grouped when the average volume of tumors reached about 100˜200 mm^3. “QW”=weekly dose. “Q3d”=dosed every third day. “BiW”=biweekly.
(§4) The bodyweight and major/minor axis of the mice were measured twice a week, and the tumor volumes were calculated using the formula: Tumor volume=1/2×major axis[…]. […] “T” represents average tumor volume of the experimental group (cm^3), and “C” represents average tumor volume of the control group (cm^3). The animals were monitored at all times. The bodyweight and major/minor axis or mice were measured twice a week.
(§5) Tumor volumes were represented with average±standard error. […] P<0.05 represents significant difference.

WiDr = assay: Human colon cancer Widr subcutaneous model (Day 27 after treatment); type: in vivo, nude mice
Method: as §3, §4, §5

colon cancer, CS182, 5# = assay: Patients primary tumor tissue subcutaneous model (Day 27 after treatment); type: in vivo, nude mice; conditions: Irinotecan 50 mg/kg i.v. BiW × 6 times
Description: as §1, §2
(§6) Tumor volumes were represented with average±standard error. Data analysis was done using Spss16.0, One-Way ANOVA, LSD (homogeneity of variance) or Dunnett T3 (non-homogeneity of variance). […] P<0.05 represents significant difference.

colon cancer, CS263, 1# = assay: Patients primary tumor tissue subcutaneous model (Day 35 after treatment); type: in vivo, nude mice
Description: as §1, §2, §6

lung cancer, CS225, 1# = assay: Patients primary tumor tissue subcutaneous model (Day 37 after treatment); type: in vivo, nude mice; conditions: cisplatin 5 mg/kg i.p. QW × 2w
Description: as §1, §2, §6

H2122 = assay: Human lung cancer H2122 subcutaneous model (Day 38 after treatment); conditions: for Tumor regression: treatment groups
[1] = molecular target: T1, DR4-His-EC (Lot: 090222-P, E coli.) (human, UniProt O00220 24-239, limits assumed); assay: CLEIA, antigen coated on microplate, HRP secondary antibody
T1 construct: it may mean extracellular or E. coli; also called TRAIL-R1; not shown: His tag
T1 sequence (looked up): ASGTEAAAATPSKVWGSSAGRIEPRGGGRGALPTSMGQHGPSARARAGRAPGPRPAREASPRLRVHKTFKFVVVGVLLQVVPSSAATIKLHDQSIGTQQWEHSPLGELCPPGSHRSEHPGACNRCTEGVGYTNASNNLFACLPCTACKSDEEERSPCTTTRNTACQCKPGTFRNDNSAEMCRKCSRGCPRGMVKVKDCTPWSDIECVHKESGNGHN

[2] = molecular target: T2, DcR1-His (recombinant human TRAIL R3/TNFRSF10C, Novoprotein Science) (human, UniProt O14798 26-221, limits assumed); assay: as above
T2 construct: Commercial protein; not shown: His tag
T2 sequence (looked up): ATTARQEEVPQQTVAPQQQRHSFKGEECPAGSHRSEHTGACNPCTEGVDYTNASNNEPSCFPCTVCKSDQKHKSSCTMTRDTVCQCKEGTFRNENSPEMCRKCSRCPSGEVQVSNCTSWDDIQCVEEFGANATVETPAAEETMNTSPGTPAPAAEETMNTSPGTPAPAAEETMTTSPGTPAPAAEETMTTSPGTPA

[3] = molecular target: T3, DcR2-His (recombinant human TRAIL R4/TNFRSF10D, Sino Biological) (human, UniProt Q9UBN6 56-211, limits assumed); assay: as above
T3 construct: Commercial protein; not shown: His tag
T3 sequence (looked up): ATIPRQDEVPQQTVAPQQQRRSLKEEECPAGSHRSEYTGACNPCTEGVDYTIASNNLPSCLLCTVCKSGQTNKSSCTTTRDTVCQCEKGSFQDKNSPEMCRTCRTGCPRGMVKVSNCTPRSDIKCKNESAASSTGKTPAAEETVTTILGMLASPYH

[4] = molecular target: T4, OPG-His (recombinant human osteroprotegerin/TNFRSF11B, Wuxi Pharmatech) (human, UniProt O00300 22-401, limits assumed); assay: as above
T4 construct: Commercial protein; also called osteoprotegerin; not shown: His tag
T4 sequence (looked up): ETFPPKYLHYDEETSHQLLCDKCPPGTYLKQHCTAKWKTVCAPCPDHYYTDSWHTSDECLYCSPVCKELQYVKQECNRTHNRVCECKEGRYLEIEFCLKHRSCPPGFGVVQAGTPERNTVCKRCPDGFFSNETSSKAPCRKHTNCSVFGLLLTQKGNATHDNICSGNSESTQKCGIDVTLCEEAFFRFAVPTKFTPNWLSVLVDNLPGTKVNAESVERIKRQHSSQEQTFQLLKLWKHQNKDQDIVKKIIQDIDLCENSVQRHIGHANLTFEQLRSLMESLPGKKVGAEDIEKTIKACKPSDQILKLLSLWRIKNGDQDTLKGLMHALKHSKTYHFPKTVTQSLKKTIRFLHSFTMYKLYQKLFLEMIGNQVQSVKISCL

[5] = Gemcitabine 60 mg/kg i.p. Q3d × 6W
[6] = Gemcitabine 60 mg/kg i.p. Q3d × 6W, listed as gemcitabine
[7] = repeated experiment, gemcitabine group
[8] = Irinotecan 50 mg/kg i.v. BiW × 6 times
[9] = repeated experiment, Irinotecan group
[10] = repeated experiment, Taxol group

In the case of `Nc1ccn([C@@H]2O[C@H](CO)[C@@H](O)C2(F)F)c(=O)n1` [Gemcitabine, reference compound], the “TGI (Calculated using tumor volumes)” value (MIA-PaCa-2; [5]) is reported as 52.60%**, the “TGI (Calculated using tumor weight)” value (MIA-PaCa-2; [5]) is reported as 55.66%* and the “Time of tumor volume changed significantly” value (MIA-PaCa-2; [5]) is reported as 10 days after first treatment. The “Tumor Volume Mean ± SEM” value (MIA-PaCa-2; [5]) was 1.60 ± 0.11 cm^3, the “Tumor weight Mean ± SEM” value (MIA-PaCa-2; [5]) was 0.84 ± 0.07 g and the “TGI (Calculated using tumor volumes)” value (MIA-PaCa-2; [6]) was 52.60%. For the same molecule, the “TGI (Calculated using tumor weight)” value (MIA-PaCa-2; [6]) was 55.66%, the Tumor regression (MIA-PaCa-2; first experiment) was “not found in the chemotherapy group” and the Tumor regression (MIA-PaCa-2; repeated experiment) was “not found in the chemotherapy group alone”. The “TGI calculated based on the tumor volume” value (MIA-PaCa-2; [7]) was 34.33%, the “TGI calculated based on the tumor weight” value (MIA-PaCa-2; [7]) was 31.30% and the Bodyweights of mice (MIA-PaCa-2; treatment groups over the time) was “decreased significantly by the third dosing”.

`O=c1[nH]cc(F)c(=O)[nH]1` [5-Fu, 5-fluorouracil, reference compound] was tested, and the “TGI (calculated using the tumor volumes of Day 30)” value (colon cancer, CS146, 2#) was 37.95%.

For `CCc1c2c(nc3ccc(OC(=O)N4CCC(N5CCCCC5)CC4)cc13)-c1cc3c(c(=O)n1C2)COC(=O)[C@]3(O)CC` [Irinotecan, reference compound], the “Tumor weight Mean ± SEM” value (Colo205; [8]) was 0.11 ± 0.02 g, the Tumor regression (Colo205; first experiment, treatment groups) was “none was found” and the “TGI calculated using the tumor weights” value (Colo205; [9]) was 93.76%. For the same molecule, the “Tumor weight Mean ± SEM” value (WiDr; [8]) was 0.26 ± 0.04 g, the “TGI (Calculated using tumor weight)” value (WiDr; [9]) was 72.30% and the “TGI (Calculated using tumor weight)” value (colon cancer, CS182, 5#) was 93.46%*. For the same molecule, the “Tumor weight Mean ± SEM” value (colon cancer, CS182, 5#) was 0.04 ± 0.00 g, the “TGI (Calculated using tumor weight)” value (colon cancer, CS182, 5#; listed as irinotecan) was 93.46% and the “TGI (Calculated using tumor weight)” value (colon cancer, CS263, 1#; [8]) was 99.58%*. For the same molecule, the “Tumor weight Mean ± SEM” value (colon cancer, CS263, 1#; [8]) was 0.003 ± 0.002 g, the “TGI (Calculated using tumor weight)” value (colon cancer, CS263, 1#; Irinotecan 50 mg/kg i.v. BiW × 6 times, listed as irinotecan) was 99.58% and the “Animals showing tumor regression” value (colon cancer, CS263, 1#; combination: Day 24 and Day 31, irinotecan: Day 35) was “one animal”.

In the case of `N.N.[Cl][Pt][Cl]` [Cisplatin, cisplatin, reference compound], the “T/C % (Calculated using tumor volumes)” value (lung cancer, CS225, 1#) is reported as 72.14%, the “TGI (Calculated using tumor volumes)” value (lung cancer, CS225, 1#) is reported as 31.45% and the “TGI (Calculated using tumor weight)” value (lung cancer, CS225, 1#) is reported as 32.66%. The “Time of tumor volume changed significantly” value (lung cancer, CS225, 1#) was 7, the “Tumor Volume Mean ± SEM” value (lung cancer, CS225, 1#) was 0.73 ± 0.06 cm^3 and the “Tumor weight Mean ± SEM” value (lung cancer, CS225, 1#) was 0.48 ± 0.08 g. The “TGI (Calculated using tumor volumes)” value (lung cancer, CS225, 1#; listed as cisplatin) was 31.45% and the “TGI (Calculated using tumor weight)” value (lung cancer, CS225, 1#; listed as cisplatin) was 32.66%.

`CC(=O)O[C@H]1C(=O)[C@@]2(C)[C@H]([C@H](OC(=O)c3ccccc3)[C@]3(O)C[C@H](OC(=O)[C@H](O)[C@@H](NC(=O)c4ccccc4)c4ccccc4)C(C)=C1C3(C)C)[C@]1(OC(C)=O)CO[C@@H]1C[C@@H]2O` [Taxol, reference compound] was tested, and the “T/C % (Calculated using tumor volumes)” value (H2122; Taxol 24 mg/kg i.p. Q6d × 6W) was 55.33%, the “TGI (Calculated using tumor weight)” value (H2122; Taxol 24 mg/kg i.p. Q6d × 6W) was 47.18% and the “Time of tumor volume changed significantly” value (H2122; Taxol 24 mg/kg i.p. Q6d × 6W) was 11. The “Tumor Volume Mean ± SEM” value (H2122; Taxol 24 mg/kg i.p. Q6d × 6W) was 1.08 ± 0.12 cm^3, the “Tumor weight Mean ± SEM” value (H2122; Taxol 24 mg/kg i.p. Q6d × 6W) was 0.87 ± 0.12 g and the Bodyweights (H2122; Taxol group, HuCTB006 0.2 mg/kg group) was “decreased, but were maintained at an acceptable level”. For the same molecule, the Tumor regression (H2122; first experiment) was “none was observed”, the Tumor regression (H2122; repeated experiment) was “none was observed” and the “TGI (Calculated using tumor volume)” value (H2122; [10]) was 54.28%. For the same molecule, the “TGI (Calculated using tumor weight)” value (H2122; [10]) was 50.44%.

B1: HuCTB006, human chimeric anti-TRAIL-R2 (DR5) monoclonal antibody (antibody, human IgG1, V domains shown)
VH: EVQLQQSGPELVKPGASVRMSCKASGYTFTSYFIHWVKQRPGQGLEWIGWIYPGNVNTKYSEKFKGKATLTADKSSSTAYMQFSSLTSEDSAVYFCARGEAGYFDYWGQGTTLTVSS
VL: DIVMTQSHKFMSTSVGDRVSITCKASQDVSTAVAWYQQKPGQSPRLLIYWASTRHTGVPDRFTGSGSGTDYTLTISSVQAEDQALYYCQQHYRTPWTFGGGTKLEIKR
notes: also called human CTB006
B1: no binding (tested: 200, 40 and 8 ng/mL) [1]; no binding (tested: 200, 40 and 8 ng/mL) [2]; no binding (tested: 200, 40 and 8 ng/mL) [3]. B1: no binding (tested: 200, 40 and 8 ng/mL) [4].
